Results from US20080027075A1, “Quaternary Amino-Function Chalcones” (Lica Pharmaceuticals A/S, priority 2003, published 2008).
≈ marks a conversion by molar mass, not a printed value. Entries after “also recorded” stand apart in the source; their conditions may differ.

Legend:
[1] = test system: Staphylococcus aureus ATCC29213; experiment: MIC determination in broth microdilution assay; assay type: cell-based; settings: A: Staphylococcus aureus ATCC29213; MH-broth microdilution
[2] = test system: Staphylococcus aureus ATCC33591 (resistant to methicillin); experiment: MIC determination in broth microdilution assay; assay type: cell-based; settings: B: Staphylococcus aureus ATCC33591 (resistant to methicillin); MH-broth microdilution
[3] = test system: Staphylococcus intermedius #2357 (clinical isolate from the Copenhagen area); experiment: MIC determination in broth microdilution assay; assay type: cell-based; settings: C: Staphylococcus intermedius #2357 clinical isolate; MH-broth microdilution
[4] = test system: Enterococcus faecalis ATCC29212; experiment: MIC determination in broth microdilution assay; assay type: cell-based; settings: D: Enterococcus faecalis ATCC29212; MH-broth microdilution
[5] = test system: Enterococcus faecium #17501 (vancomycin-resistant clinical isolate); experiment: MIC determination in broth microdilution assay; assay type: cell-based; settings: E: Enterococcus faecium #17501 vancomycin-resistant clinical isolate; MH-broth microdilution
[6] = test system: Streptococcus pneumoniae #998 (clinical isolate); experiment: MIC determination in broth microdilution assay; assay type: cell-based; settings: F: Streptococcus pneumoniae #998 clinical isolate; MH-broth microdilution
[7] = test system: Eschericia coli ATCC25922; experiment: MIC determination in broth microdilution assay; assay type: cell-based; settings: for MIC: G: Eschericia coli ATCC25922, MH-broth microdilution; for activity against Eschericia coli (in words): Gram-negative prototype, Table 1
[8] = test system: panel of 10 different non-fastidious bacteria growing aerobically; experiment: Activity against non-fastidious bacteria (panel, discussed in words); assay type: cell-based; settings: for activity against pathogenic Gram-positive bacteria (in words): Gram-positive non-fastidious bacteria, comparison with Licochalcone A
[9] = test system: panel of anaerobic bacteria (Bacteroides fragilis, Clostridium perfringens, Clostridium difficele); assay type: cell-based; settings: single concentration of compound (100 μM); agar dilution
[10] = Pharmacokinetic studies, intravenous, mice; assay type: in vivo, female NMRI mice
Protocol: Evaluation of the pharmacokinetic properties of the compounds was done using female NMRI mice (weighing app. 30 g). Test articles were administrated intravenously and Samples of serum were taken at defined time-points. Standards and QC-samples in plasma were prepared and the serum concentrations of the test compounds quantified by HPLC-MS. Prior to analysis, proteins were precipitated by deluding the samples (1:1) (v/v) with 100% acetonitrile followed by centrifugation at 14,000 rpm in 10 min. The supernatant was used for the analysis. A Waters Alliance HPLC-system (Milford, Mass., USA) was coupled to a Quatro Micro triple quadropl mass spectrometer (Micromass, Manchester, UK) operating in positive (ESI) mode. Separation was performed on a XTerra MS C18 column (150*2.1 mm I.D., 3,5 μm particle size) (Waters Milford, Mass., USA). Mobile phase A: 0.1% (v/v) formic acid or 10 mM ammonium acetate pH-adjusted to 9.5 in MilliQ-water, mobile phase B: 100% methanol. The gradient was as follows: 0 min=70% A-30% B, 0-10 min. a linear gradient to 10% A and 90% B this was maintained till 11 min, 11-13 linear gradient to 70% A and 30% B this was maintained till 18 min. The flow rate was 0.20 ml/min, injection volume 10 μl.

[11] = MIC of D-001 quoted in the pharmacokinetic profile (strain not named); assay type: cell-based
[12] = test system: panel of six strains Helicobacter pylori, includes strains resistant to metronidazole; experiment: MIC determination against Helicobacter pylori (agar dilution); settings: 72 h, read-out: MICs against Helicobacter pylori
S. aureus ATCC29213 = experiment: Killing curve determination (time-kill curve); assay type: cell-based, Staphylococcus aureus; settings: for bactericidal activity (CFU counts per ml in time-kill curve): concentrations above the MIC; for dependence of the bactericidal action: time-kill curve
S. aureus E2371 = experiment: Killing curve determination (time-kill curve); assay type: cell-based, Staphylococcus aureus; settings: for bactericidal activity (CFU counts per ml in time-kill curve): concentrations above the MIC; for dependence of the bactericidal action: time-kill curve

SMILES | MIC [1] [µM] | MIC [2] [µM] | MIC [3] [µM] | MIC [4] [µM] | MIC [5] [µM] | MIC [6] [µM] | MIC [7] [µM] | activity against pathogenic Gram-positive bacteria (in words) [8] | activity against anaerobic bacteria [9] | Cmax ([10]; female, NMRI, mouse, serum, iv, single i.v. dose of 5 mg/ml) [µg/mL] | volume of distribution ([10]; i.v., as indicated by the plasma concentration) | MIC [11] | MIC [12] [µM] | bactericidal activity (CFU counts per ml in time-kill curve) (S. aureus ATCC29213) | dependence of the bactericidal action (S. aureus ATCC29213) | bactericidal activity (CFU counts per ml in time-kill curve) (S. aureus E2371) | dependence of the bactericidal action (S. aureus E2371) | antibacterial effect (in words) ([8]; whole panel of non-fastidious bacteria) | activity against Eschericia coli (in words) [7]
COc1ccc(C(=O)/C=C/c2cc(-c3cc(C)cc(C)c3)ccc2OCC[N+](C)(C)C)c(Cl)c1.[I-] [D-001, (2-{3-[3-(2-Chloro-4-methoxy-phenyl)-3-oxo-propenyl]-3′,5′-dimethyl-biphenyl-4-yloxy}-ethyl)-trimethyl-ammonium; iodide] | 2.4 | 4.7 | 2.4 | 4.7 | 4.7 | 18.8 | 37.5 | increased potency | activity against all microorganisms within the test panel | 126 | very low | approximately 1 μg/mi | 50 to 100 | – | – | – | – | – | –
COc1ccc(C(=O)/C=C/c2cc(-c3cc(C)cc(C)c3)ccc2OCC[N+](C)(C)C)c(C[N+](C)(C)C)c1.[I-].[I-] [D-007] | 18.8 | 18.8 | 9.4 | 150 | 75 | 75 | 75 | – | – | – | – | – | – | bactericidal | primarily dependent on incubation time; also recorded: predominantly dependent on the time of incubation with the compound | – | – | – | –
CN(C)CCOc1ccc(-c2ccccc2)cc1/C=C/C(=O)c1cccc(CN(C)C)c1 [SM012, (E)-3-[4-(2-Dimethylamino-ethoxy)-biphenyl-3-yl]-1-(3-dimethylaminomethyl-phenyl)-propenone] | 18.8 (≈ 8.06 µg/mL) | 18.8 (≈ 8.06 µg/mL) | 18.8 (≈ 8.06 µg/mL) | 18.8 (≈ 8.06 µg/mL) | 18.8 (≈ 8.06 µg/mL) | 18.8 (≈ 8.06 µg/mL) | 37.5 (≈ 16.1 µg/mL) | – | – | – | – | – | – | – | – | – | – | – | –
C[N+](C)(C)CCOc1ccc(-c2ccccc2)cc1/C=C/C(=O)c1cccc(C[N+](C)(C)C)c1.[I-].[I-] [D-006] | 18.8 | 18.8 | 18.8 | 75 | 37.5 | 150 | – | – | – | – | – | – | – | – | – | bactericidal | primarily dependent on the concentration of the test compound | – | –
Cc1cc(C)cc(-c2ccc(OCC[N+](C)(C)C)c(/C=C/C(=O)c3ccc(N)cc3)c2)c1 [D-002, (2-{3-[3-(4-Amino-phenyl)-3-oxo-propenyl]-3′,5′-dimethyl-biphenyl-4-yloxy}-ethyl)-trimethyl-ammonium; iodide] | 9.4 | 9.4 | 9.4 | 18.8 | 18.8 | 18.8 | 75 | – | – | – | – | – | – | – | – | – | – | – | –
CCCCN(CCCC)c1ccc(/C=C/C(=O)c2cccc(C[N+](C)(C)C)c2)cc1 [D-005, {3-[3-(4-Dibutylamino-phenyl)-acryloyl]-benzyl}-trimethyl-ammonium] | 4.7 | 9.4 | 4.7 | 18.8 | 9.4 | 37.5 | 75 | increased potency | – | – | – | – | – | bactericidal | primarily dependent on the concentration of the test compound | – | – | – | –
Cc1cc(C)cc(-c2ccc(OCCN(C)C)c(/C=C/C(=O)c3ccccc3N)c2)c1 [SM009, (E)-1-(2-Amino-phenyl)-3-[4-(2-dimethylamino-ethoxy)-3′,5′-dimethyl-biphenyl-3-yl]-propenone] | 4.7 (≈ 1.95 µg/mL) | 4.7 (≈ 1.95 µg/mL) | 4.7 (≈ 1.95 µg/mL) | 9.4 (≈ 3.9 µg/mL) | 4.7 (≈ 1.95 µg/mL) | 18.8 (≈ 7.79 µg/mL) | – | – | – | – | – | – | – | – | – | – | – | – | –
COc1ccc(C(=O)/C=C/c2cc(-c3ccccc3OC)ccc2N2CCN(C)CC2)c(F)c1 [SM010, (E)-1-(2-Fluoro-4-methoxy-phenyl)-3-[2′-methoxy-4-(4-methyl-piperazin-1-yl)-biphenyl-3-yl]-propenone] | 4.7 (≈ 2.16 µg/mL) | 9.4 (≈ 4.33 µg/mL) | 9.4 (≈ 4.33 µg/mL) | 18.8 (≈ 8.66 µg/mL) | 9.4 (≈ 4.33 µg/mL) | 37.5 (≈ 17.3 µg/mL) | – | – | – | – | – | – | – | – | – | – | – | – | –
CCCCN(CCCC)c1ccc(/C=C/C(=O)c2cccc(CN(C)C)c2)cc1 [SM011, (E)-3-(4-Dibutylamino-phenyl)-1-(3-dimethylaminomethyl-phenyl)-propenone] | 9.4 (≈ 3.69 µg/mL) | 9.4 (≈ 3.69 µg/mL) | 9.4 (≈ 3.69 µg/mL) | 9.4 (≈ 3.69 µg/mL) | 9.4 (≈ 3.69 µg/mL) | 18.8 (≈ 7.38 µg/mL) | – | – | – | – | – | – | – | – | – | – | – | – | –
COc1ccc(C(=O)/C=C/c2cc(-c3cc(C)cc(C)c3)ccc2OCCN(C)C)c(Cl)c1 [SM007, (E)-1-(2-Chloro-4-methoxy-phenyl)-3-[4-(2-dimethylamino-ethoxy)-3′,5′-dimethyl-biphenyl-3-yl]-propenone] | 4.7 (≈ 2.18 µg/mL) | 4.7 (≈ 2.18 µg/mL) | 4.7 (≈ 2.18 µg/mL) | 9.4 (≈ 4.36 µg/mL) | 4.7 (≈ 2.18 µg/mL) | 18.8 (≈ 8.72 µg/mL) | – | – | – | – | – | – | – | – | – | – | – | – | –
Cc1cc(C)cc(-c2ccc(OCCN(C)C)c(/C=C/C(=O)c3ccc(N)cc3)c2)c1 [SM008, (E)-1-(4-Amino-phenyl)-3-[4-(2-dimethylamino-ethoxy)-3′,5′-dimethyl-biphenyl-3-yl]-propenone] | 9.4 (≈ 3.9 µg/mL) | 9.4 (≈ 3.9 µg/mL) | 9.4 (≈ 3.9 µg/mL) | 18.8 (≈ 7.79 µg/mL) | 9.4 (≈ 3.9 µg/mL) | 18.8 (≈ 7.79 µg/mL) | – | – | – | – | – | – | – | – | – | – | – | – | –
COc1ccc(C(=O)/C=C/c2cc(-c3cc(C)cc(C)c3)ccc2OCCN(C)C)c(CN(C)C)c1 [SM013, (E)-3-[4-(2-Dimethylamino-ethoxy)-3′,5′-dimethyl-biphenyl-3-yl]-1-(2-dimethylaminomethyl-4-methoxy-phenyl)-propenone] | 4.7 (≈ 2.29 µg/mL) | 9.4 (≈ 4.57 µg/mL) | 18.8 (≈ 9.15 µg/mL) | 4.7 (≈ 2.29 µg/mL) | 4.7 (≈ 2.29 µg/mL) | 4.7 (≈ 2.29 µg/mL) | 75 (≈ 36.5 µg/mL) | – | – | – | – | – | – | – | – | – | – | – | –
COc1ccc(C(=O)/C=C/c2ccccc2)cc1 [4′-MC, 4′methoxy chalcone, reference compound] | – | – | – | – | – | – | – | – | – | – | – | – | – | – | – | – | – | no antibacterial effect at all | –
Cc1cc(C)cc(-c2ccc(OCC[N+](C)(C)C)c(/C=C/C(=O)c3ccccc3N)c2)c1.[I-] [D-003, (2-{3-[3-(2-Amino-phenyl)-3-oxo-propenyl]-3′,5′-dimethyl-biphenyl-4-yloxy}-ethyl)-trimethyl-ammonium; iodide] | 4.7 | 4.7 | 2.4 | 4.7 | 4.7 | 18.8 | 18.8 | – | – | – | – | – | – | – | – | bactericidal | primarily dependent on the concentration of the test compound; also recorded: predominantly dependent on the concentration of the compound | – | high activity
C=CC(C)(C)c1cc(/C=C/C(=O)c2ccc(O)cc2)c(OC)cc1O [LicA, Licochalcone A] | 37.5 (≈ 12.7 µg/mL) | 37.5 (≈ 12.7 µg/mL) | 37.5 (≈ 12.7 µg/mL) | 37.5 (≈ 12.7 µg/mL) | 37.5 (≈ 12.7 µg/mL) | 75 (≈ 25.4 µg/mL) | – | moderate bactericidal activity | – | – | – | – | – | – | – | – | – | – | only modest or no activity
COc1ccc(C(=O)/C=C/c2cc(-c3ccccc3OC)ccc2N2CC[N+](C)(C)CC2)c(F)c1 [D-004, 4-{3-[3-(2-Fluoro-4-methoxy-phenyl)-3-oxo-propenyl]-2′-methoxy-biphenyl-4-yl}-1,1-dimethyl-piperazin-1-ium] | 18.8 | 9.4 | 9.4 | 18.8 | 18.8 | 37.5 | 75 | – | – | – | – | – | – | – | – | – | – | – | –
